# Source: patent publication US20250214964A1, “COMPOUNDS DERIVED FROM 4-AMINO-N-(4-AMINOPHENYL) BENZAMIDE AND ANALOGUES AND USE THEREOF” (priority 2022, published 2025)
# Experiments:
# [1] = system: intracellular amastigotes of L. donovani (strain MHOM/ET/67/HU3); assay: L. donovani intracellular amastigotes in THP-1-derived macrophages, resazurin method; type: cell-based; conditions: for SI selectivity index (EC50 THP-1/EC50 parasite (amastigote form)): THP-1 vs L. donovani amastigotes
# Method: (§1) Furthermore, their cytotoxicity on human THP-1 cells was evaluated and the selectivity index (SI) of each compound was calculated (Table 1).
# [2] = system: T. b. brucei wild strain s427; assay: T. b. brucei s427 bloodstream trypomastigotes, Alamar blue; type: cell-based
# [3] = system: HEK cells; assay: Cytotoxicity on HEK cells; conditions: read-out: CC50 HEK; concentration that causes 50% cell death
# [4] = system: T. b. brucei drug-resistant strain B48; type: cell-based; conditions: for RF resistance factor (EC50 T. b. B48/EC50 T. b. s427): value in parentheses
# [5] = Cytotoxicity on THP-1 cells; conditions: human
# Method: as §1
# [6] = Cytotoxicity on L929 cells; type: cell-based; conditions: mouse
# [7] = system: epimastigotes of T. cruzi (CL strain lacZ); assay: microbe, parasite or virus in culture; type: cell-based; conditions: Trypanosoma cruzi
# [8] = Microsomal stability, mouse liver microsomes; conditions: reaction time up to 120 min
# [9] = Microsomal stability, human liver microsomes, phase I; conditions: reaction time up to 120 min
smiles,measurement,setting,value
"C[C@@H]1[C@H](O)[C@@H](C)/C=C/C=C/C=C/C=C/C=C/C=C/C=C/[C@H](O[C@@H]2O[C@H](C)[C@@H](O)[C@H](N)[C@@H]2O)C[C@@H]2O[C@](O)(C[C@@H](O)C[C@@H](O)[C@H](O)CC[C@@H](O)C[C@@H](O)CC(=O)O[C@H]1C)C[C@H](O)[C@H]2C(=O)O [AmB, Amphotericin B]",SI selectivity index (EC50 THP-1/EC50 parasite (amastigote form)),[1],116.0
"O=C(Nc1ccc(N=c2[nH]c3ccccc3[nH]2)c(Cl)c1)c1ccc(N=c2[nH]c3ccccc3[nH]2)cc1Cl [Compound 1f, 4-((1H-benzo[d]imidazol-2(3H)-ylidene)amino)-N-(4-((1H-benzo[d]imidazol-2(3H)-ylidene)amino)-3-chlorophenyl)-2-clorobenzamide]",SI,[2]; HEK vs T. brucei,3.9
same,EC50,[2]; strain s427 of T. b. brucei,2.64 ± 0.09 µM
same,CC50,[3],10.2 ± 0.3 µM
same,EC50,[4]; strain B48 resistant to pentamidine and diminazene,2.93 ± 0.17 µM
same,RF resistance factor (EC50 T. b. B48/EC50 T. b. s427),[4],(1.11)
"c1ccc2[nH]c(=Nc3ccc(CCc4ccc(N=c5[nH]c6ccccc6[nH]5)cc4)cc3)[nH]c2c1 [Compound 13, 4,4′-(ethane-1,2-diyl)bis(N-(1H-benzo[d]imidazol-2(3H)-ylidene)aniline)]",EC50,"[1]; Leishmania donovani, Macrophage, read-out: EC50 L. donovani intracellular amastigotes",> 10 µM
"N=C(Nc1ccc(CCc2ccc(NC(=N)c3ccccn3)cc2)cc1)c1ccccn1 [Compound 17, N,N″-(ethane-1,2-diylbis(4,1-phenylene))dipicolinimidamide]",EC50,[5],> 50 µM
same,EC50 at 72 h,[6],> 200 µM
"CCCCCCCCCCCCCCCCOP(=O)([O-])OCC[N+](C)(C)C [MIL, Miltefosine]",SI selectivity index (EC50 THP-1/EC50 parasite (amastigote form)),[1],28.8
"O=C(Cn1ccnc1[N+](=O)[O-])NCc1ccccc1 [benzn, benznidazole]",EC50,[7],25.3 ± 2.1 µM
same,EC50 at 72 h,[6],> 200 µM
O=C(O)Cc1ccccc1Nc1c(Cl)cccc1Cl [diclofenac],"metabolism by mouse liver microsomes (CD-1), in words",[8],slowly metabolised
same,"metabolism by human liver microsomes, in words",[9],rapidly metabolised (high intrinsic clearance)
"N=C(N)c1ccc(/N=N/Nc2ccc(C(=N)N)cc2)cc1 [dimin., Diminazene]",RF resistance factor (EC50 T. b. B48/EC50 T. b. s427),[4],(13.1)
"N=C(N)c1ccc(OCCCCCOc2ccc(C(=N)N)cc2)cc1 [pent., Pentamidine]",RF resistance factor (EC50 T. b. B48/EC50 T. b. s427),[4],(168)
